Assay results: patent US20240246979A1, “cGAS INHIBITORS” (Eli Lilly and Company, priority 2022, published 2024)

Columns and labels:
cGAS [1] = molecular target: T1, cGAS (Homo sapiens, UniProt Q8N884); assay: Cellular assay to measure cGAS activity (IFNb AlphaLISA in THP1 cells stimulated by RDG-Adenovirus-GFP); format: cell-based; parameters: host or cells: THP1 cells differentiated with PMA and stimulated with RDG-Adenovirus-GFP; settings: PMA-differentiated THP1 cells, RDG-Adenovirus-GFP at 1000 MOI; inhibition of IFNb production as marker for cGAS activity
T1 sequence (Q8N884 whole entry): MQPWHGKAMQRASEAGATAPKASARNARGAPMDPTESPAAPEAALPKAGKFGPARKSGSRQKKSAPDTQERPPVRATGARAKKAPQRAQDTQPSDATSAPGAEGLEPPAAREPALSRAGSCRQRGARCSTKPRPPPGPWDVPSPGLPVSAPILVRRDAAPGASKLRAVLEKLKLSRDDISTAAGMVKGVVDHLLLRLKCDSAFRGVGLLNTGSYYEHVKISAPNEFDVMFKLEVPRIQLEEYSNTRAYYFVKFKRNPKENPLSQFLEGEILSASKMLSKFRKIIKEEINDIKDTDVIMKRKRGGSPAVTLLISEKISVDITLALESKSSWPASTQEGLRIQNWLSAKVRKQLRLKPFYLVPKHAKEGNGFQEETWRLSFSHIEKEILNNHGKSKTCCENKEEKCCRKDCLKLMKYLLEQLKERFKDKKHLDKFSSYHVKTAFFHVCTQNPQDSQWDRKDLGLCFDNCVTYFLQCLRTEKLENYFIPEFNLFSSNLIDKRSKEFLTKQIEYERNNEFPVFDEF
How it was run: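 The readout is secreted IFNb measured by AlphaLISA after overnight compound exposure. THP1 cells, differentiated with PMA for 24 h and rested overnight, were infected with RDG-Adenovirus-GFP (1000 MOI, 4 h) before compounds were added; IC50 came from a 4-parameter logistic fit of inhibition against log concentration.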

cGAS [2] = molecular target: T1, cGAS; assay: In vitro inhibition assay of cGAS activity (cGAMP production, RapidFire mass spectrometry); format: biochemical; parameters: Insert cDNA encoding full-length of human cGAS; His6; made in house; host or cells: E. coli BL21(DE3); settings: 10 nM recombinant human cGAS, 60 nM 75-bp dsDNA, 50 μM ATP, 50 μM GTP, 3 hrs
How it was run: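 Reactions in 10 mM Tris-Cl pH 7.5, 5 mM MgCl2, 0.01% Triton X-100 contained serially diluted compound, 10 nM recombinant cGAS, dsDNA activator and 50 μM each of ATP and GTP, run 3 hrs at ambient temperature. After formic acid quench, cGAMP output was measured by mass spectrometry and percent inhibition versus log concentration was fitted for IC50.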

With `C[C@H](O)COc1cc(Cl)c(Cl)c2[nH]c3c(c12)[C@H](C)C(=O)NCC3` (single isomer, unassigned) [Example 84] the IC50 (cGAS [1]) was 1430 nM and the IC50 (cGAS [2]) was 44.2 nM.

Work on `CC1C(=O)NCCc2[nH]c3c(Cl)c(Cl)cc(NCc4cocn4)c3c21` (stereo in doubt) [Example 58, (S′)-7,8-Dichloro-1-methyl-10-((oxazol-4-ylmethyl)amino)-3,4,5,6-tetrahydroazepino[4,5-b]indol-2(1H)-one Or (R)-7,8-Dichloro-1-methyl-10-((oxazol-4-ylmethyl)amino)-3,4,5,6-tetrahydroazepino[4,5-b]indol-2(1H)-one] yielded an IC50 (cGAS [1]) of 577 nM and an IC50 (cGAS [2]) of 16.5 nM.

Molecule `C[C@@H]1CNC(=O)[C@@H](C)c2c1[nH]c1c(Cl)c(Cl)cc(NCCO)c21` (single isomer, unassigned) [Example 154] has an IC50 (cGAS [1]) of 394 nM and an IC50 (cGAS [2]) of 12.4 nM.

For `O=C1Cc2c([nH]c3c(Cl)c(Cl)cc(NC(=O)CO)c23)CCN1` [Example 24, N-(7,8-Dichloro-2-oxo-1,2,3,4,5,6-hexahydroazepino[4,5-b]indol-10-yl)-2-hydroxyacetamide], the IC50 (cGAS [1]) was 6910 nM and the IC50 (cGAS [2]) was 88.4 nM.

With `Cn1c2c(c3c(OCC#N)cc(Cl)c(Cl)c31)CC(=O)NCC2CCO` (stereo not drawn) [Example 124, 2-((7,8-Dichloro-5-(2-hydroxyethyl)-6-methyl-2-oxo-1,2,3,4,5,6-hexahydroazepino[4,5-b]indol-10-yl)oxy)acetonitrile] the IC50 (cGAS [1]) was 468 nM and the IC50 (cGAS [2]) was 32.3 nM.

Work on `C[C@@H]1C(=O)NCCc2[nH]c3c(Cl)c(Cl)cc(OCC(F)(F)CO)c3c21` (single isomer, unassigned) [Example 73] yielded an IC50 (cGAS [1]) of 755 nM and an IC50 (cGAS [2]) of 11.2 nM.

With `CC1C(=O)NCCc2[nH]c3c(Cl)c(Cl)cc(OCC(F)(F)CO)c3c21` (stereo not drawn) [Example 72, 7,8-Dichloro-10-(2,2-difluoro-3-hydroxypropoxy)-1-methyl-3,4,5,6-tetrahydroazepino[4,5-b]indol-2(1H)-one] the IC50 (cGAS [1]) was 662 nM and the IC50 (cGAS [2]) was 23.3 nM.

Work on `C[C@H]1C(=O)NCCc2[nH]c3c(Cl)c(Cl)cc(-c4cnn(C)n4)c3c21` [Example 38, (R)-7,8-Dichloro-1-methyl-10-(2-methyl-2H-1,2,3-triazol-4-yl)-3,4,5,6-tetrahydroazepino[4,5-b]indol-2(1H)-one Or (S′)-7,8-Dichloro-1-methyl-10-(2-methyl-2H-1,2,3-triazol-4-yl)-3,4,5,6-tetrahydroazepino[4,5-b]indol-2(1H)-one] yielded an IC50 (cGAS [1]) of 9800 nM and an IC50 (cGAS [2]) of 1650 nM.

`Cn1ncc(-c2cc(Cl)c(Cl)c3[nH]c4c(c23)CC(=O)NCC4CCC(F)F)n1` (racemic) [Example 177, 7,8-Dichloro-5-(3,3-difluoropropyl)-10-(2-methyl-2H-1,2,3-triazol-4-yl)-3,4,5,6-tetrahydroazepino[4,5-b]indol-2(1H)-one] showed an IC50 (cGAS [1]) of 841 nM and an IC50 (cGAS [2]) of 23.1 nM.

With `O=C1Cc2c([nH]c3c(Cl)c(Cl)cc(NCCCO)c23)CCN1` [Example 22, 7,8-Dichloro-10-((3-hydroxypropyl)amino)-3,4,5,6-tetrahydroazepino[4,5-b]indol-2(1H)-one] the IC50 (cGAS [1]) was 4580 nM and the IC50 (cGAS [2]) was 45.9 nM.

Work on `C[C@@H]1C(=O)NCCc2[nH]c3c(Cl)c(Cl)cc(NC(=O)CO)c3c21` (single isomer, unassigned) [Example 12B] yielded an IC50 (cGAS [1]) of 1700 nM and an IC50 (cGAS [2]) of 748 nM.

For `COCCNc1cc(Cl)c(Cl)c2[nH]c3c(c12)[C@@H](C)C(=O)NCC3` (single isomer, unassigned) [Example 48], the IC50 (cGAS [1]) was > 10000 nM and the IC50 (cGAS [2]) was 6490 nM.

Molecule `C[C@@H]1CNC(=O)Cc2c1[nH]c1c(Cl)c(Cl)cc(-c3cnn(C)n3)c21` (single isomer, unassigned) [Example 147] has an IC50 (cGAS [1]) of 5170 nM and an IC50 (cGAS [2]) of 237 nM.

Work on `COCCNc1cc(Cl)c(Cl)c2[nH]c3c(c12)C(C)C(=O)NCC3` (racemic) [Example 46, 7,8-Dichloro-10-((2-methoxyethyl)amino)-1-methyl-3,4,5,6-tetrahydroazepino[4,5-b]indol-2(1H)-one] yielded an IC50 (cGAS [1]) of 885 nM and an IC50 (cGAS [2]) of 22.6 nM.

Work on `CC(C)(O)C[C@@H]1CNC(=O)Cc2c1[nH]c1c(Cl)c(Cl)cc(CC#N)c21` (single isomer, unassigned) [Example 107] yielded an IC50 (cGAS [1]) of 649 nM and an IC50 (cGAS [2]) of 12.5 nM.

With `Cn1c2c(c3c(OCC#N)cc(Cl)c(Cl)c31)CC(=O)NC[C@H]2CCO` (single isomer, unassigned) [Example 125] the IC50 (cGAS [1]) was 272 nM and the IC50 (cGAS [2]) was 18 nM.

For `C[C@H]1C(=O)NCC(C)(C)c2c1c1c(NC(=O)CO)cc(Cl)c(Cl)c1n2C` (single isomer, unassigned) [Example 135, (R)—N-(7,8-Dichloro-1,5,5,6-tetramethyl-2-oxo-1,2,3,4,5,6-hexahydroazepino[4,5-b]indol-10-yl)-2-hydroxyacetamide or (S)—N-(7,8-Dichloro-1,5,5,6-tetramethyl-2-oxo-1,2,3,4,5,6-hexahydroazepino[4,5-b]indol-10-yl)-2-hydroxyacetamide], the IC50 (cGAS [1]) was ≥ 10000 nM and the IC50 (cGAS [2]) was 20200 nM.

`C[C@@H]1C(=O)NCCc2[nH]c3c(Cl)c(Cl)cc(OCC#N)c3c21` (single isomer, unassigned) [Example 16A] showed an IC50 (cGAS [1]) of 871 nM and an IC50 (cGAS [2]) of 2.18 nM.

`Cn1c2c(c3c(OCC#N)cc(Cl)c(Cl)c31)CC(=O)NC[C@H]2CCO` (single isomer, unassigned) [Example 126] was tested, and the IC50 (cGAS [1]) was 501 nM and the IC50 (cGAS [2]) was 997 nM.

Molecule `Cn1ncc(-c2cc(Cl)c(Cl)c3[nH]c4c(c23)CC(=O)NC[C@H]4CCN2CCOCC2)n1` (single isomer, unassigned) [Example 175] has an IC50 (cGAS [1]) of 1440 nM and an IC50 (cGAS [2]) of 54.6 nM.

`C[C@@H]1CNC(=O)[C@H](C)c2c1[nH]c1c(Cl)c(Cl)cc(NCCO)c21` (single isomer, unassigned) [Example 155] gave an IC50 (cGAS [1]) of 655 nM and an IC50 (cGAS [2]) of 17.7 nM.

In the case of `C[C@H]1C(=O)NCCc2[nH]c3c(Cl)c(Cl)cc(NCC(F)(F)CO)c3c21` (single isomer, unassigned) [Example 68, (R)-7,8-Dichloro-10-((2,2-difluoro-3-hydroxypropyl)amino)-1-methyl-3,4,5,6-tetrahydroazepino[4,5-b]indol-2(1H)-one or (S)-7,8-Dichloro-10-((2,2-difluoro-3-hydroxypropyl)amino)-1-methyl-3,4,5,6-tetrahydroazepino[4,5-b]indol-2(1H)-one], the IC50 (cGAS [1]) is reported as 490 nM and the IC50 (cGAS [2]) is reported as 8.44 nM.

`COCC[C@H]1CNC(=O)[C@@H](C)c2c1[nH]c1c(Cl)c(Cl)cc(NCCO)c21` (single isomer, unassigned) [Example 174] was tested, and the IC50 (cGAS [1]) was > 10000 nM and the IC50 (cGAS [2]) was 361 nM.

`CCOc1cc(Cl)c(Cl)c2[nH]c3c(c12)[C@H](C)C(=O)NCC3` (single isomer, unassigned) [Example 15A] was tested, and the IC50 (cGAS [1]) was 793 nM and the IC50 (cGAS [2]) was 22.4 nM.

In the case of `Cn1ncc(-c2cc(Cl)c(Cl)c3c2c2c(n3C)C(CCO)CNC(=O)C2)n1` (stereo not drawn) [Example 127, 7,8-Dichloro-5-(2-hydroxyethyl)-6-methyl-10-(2-methyl-2H-1,2,3-triazol-4-yl)-3,4,5,6-tetrahydroazepino[4,5-b]indol-2(1H)-one], the IC50 (cGAS [1]) is reported as 1210 nM and the IC50 (cGAS [2]) is reported as 34.4 nM.

Molecule `CC1C(=O)NCCc2c1c1c(NCc3cnc[nH]3)cc(Cl)c(Cl)c1n2C` (stereo not drawn) [Example 91, 10-(((1H-Imidazol-5-yl)methyl)amino)-7,8-dichloro-1,6-dimethyl-3,4,5,6-tetrahydroazepino[4,5-b]indol-2(1H)-one] has an IC50 (cGAS [1]) of 1190 nM and an IC50 (cGAS [2]) of 20.7 nM.

`COc1cc(Cl)c(Cl)c2[nH]c3c(c12)C(C)C(=O)NCC3` (stereo not drawn) [Example 10, 7,8-Dichloro-10-methoxy-1-methyl-3,4,5,6-tetrahydroazepino[4,5-b]indol-2(1H)-one] gave an IC50 (cGAS [1]) of 2730 nM and an IC50 (cGAS [2]) of 124 nM.

For `C[C@@H](O)CNc1cc(Cl)c(Cl)c2c1c1c(n2C)CCNC(=O)[C@@H]1C` (single isomer, unassigned) [Example 98], the IC50 (cGAS [1]) was 2180 nM and the IC50 (cGAS [2]) was 42.4 nM.

Molecule `CCCC1CNC(=O)Cc2c1[nH]c1c(Cl)c(Cl)cc(-c3cnn(C)n3)c21` (stereo not drawn) [Example 164, 7,8-Dichloro-10-(2-methyl-2H-1,2,3-triazol-4-yl)-5-propyl-3,4,5,6-tetrahydroazepino[4,5-b]indol-2(1H)-one] has an IC50 (cGAS [1]) of 1380 nM and an IC50 (cGAS [2]) of 18.9 nM.

`COCCC1CNC(=O)Cc2c1[nH]c1c(Cl)c(Cl)cc(-c3cnn(C)n3)c21` (racemic) [Example 166, 7,8-Dichloro-5-(2-methoxyethyl)-10-(2-methyl-2H-1,2,3-triazol-4-yl)-3,4,5,6-tetrahydroazepino[4,5-b]indol-2(1H)-one] showed an IC50 (cGAS [1]) of 1020 nM and an IC50 (cGAS [2]) of 20.7 nM.

`CC1C(=O)NCCc2[nH]c3c(Cl)c(Cl)cc(OCCF)c3c21` (stereo not drawn) [Example 75, 7,8-Dichloro-10-(2-fluoroethoxy)-1-methyl-3,4,5,6-tetrahydroazepino[4,5-b]indol-2(1H)-one] showed an IC50 (cGAS [1]) of 1150 nM and an IC50 (cGAS [2]) of 19 nM.

Work on `CC1C(=O)NCCc2[nH]c3c(Cl)c(Cl)cc(NCC(F)F)c3c21` (stereo not drawn) [Example 70, 7,8-Dichloro-10-((2,2-difluoroethyl)amino)-1-methyl-3,4,5,6-tetrahydroazepino[4,5-b]indol-2(1H)-one] yielded an IC50 (cGAS [1]) of 1290 nM and an IC50 (cGAS [2]) of 30.5 nM.

For `COCC[C@H]1CNC(=O)Cc2c1[nH]c1c(Cl)c(Cl)cc(-c3cnn(C)n3)c21` (single isomer, unassigned) [Example 168], the IC50 (cGAS [1]) was 4600 nM and the IC50 (cGAS [2]) was 109 nM.
